This passage reports Kd results from publication doi:10.1101/2025.10.08.681114v1 (biorxiv, 2025).

The target in the assay is CHI3L1 (hCHI3L1, CHI3L1-His, YKL-40) (Homo sapiens, UniProt P36222). Nature of the assay: microscale thermophoresis dose-response. The assay is classed as binding.

As usually defined, the Kd is the equilibrium constant for the complex coming apart. Read a high Kd as a looser complex.

Molecules are shown by their SMILES.

Sequence of CHI3L1 (hCHI3L1, CHI3L1-His, YKL-40) (P36222 22-383): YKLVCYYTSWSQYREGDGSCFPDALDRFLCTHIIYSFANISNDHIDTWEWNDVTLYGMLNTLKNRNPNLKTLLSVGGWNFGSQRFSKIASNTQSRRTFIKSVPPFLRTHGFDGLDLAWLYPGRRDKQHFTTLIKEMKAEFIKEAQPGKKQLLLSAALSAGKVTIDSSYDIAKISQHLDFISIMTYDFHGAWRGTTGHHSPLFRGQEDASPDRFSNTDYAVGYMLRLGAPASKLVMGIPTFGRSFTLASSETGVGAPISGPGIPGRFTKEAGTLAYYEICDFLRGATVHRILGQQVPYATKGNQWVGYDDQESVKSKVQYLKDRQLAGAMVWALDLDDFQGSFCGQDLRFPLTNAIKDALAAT

In the case of `COc1cc2cc(C3CCN(C(=O)c4csc(C)c4)CC3)ncc2cc1C` [A9, compound A9], binding was put at a Kd of 182 ± 18 µM.
